Data: patent US9834542B2, “LXR modulators” (BRISTOL-MYERS SQUIBB COMPANY, priority 2013, dated 2017)

Target: T1, LXRβ (Homo sapiens, UniProt P55055)
T1 construct: Co-transfection expression plasmids, comprising full-length LXRα (pCMX-h LXRα[…] or LXRβ (pCMX-hLXRβ)); expressed in transfected cells; host or cells: CV-1 African Green Monkey Kidney Cells
T1 sequence (P55055 1-460): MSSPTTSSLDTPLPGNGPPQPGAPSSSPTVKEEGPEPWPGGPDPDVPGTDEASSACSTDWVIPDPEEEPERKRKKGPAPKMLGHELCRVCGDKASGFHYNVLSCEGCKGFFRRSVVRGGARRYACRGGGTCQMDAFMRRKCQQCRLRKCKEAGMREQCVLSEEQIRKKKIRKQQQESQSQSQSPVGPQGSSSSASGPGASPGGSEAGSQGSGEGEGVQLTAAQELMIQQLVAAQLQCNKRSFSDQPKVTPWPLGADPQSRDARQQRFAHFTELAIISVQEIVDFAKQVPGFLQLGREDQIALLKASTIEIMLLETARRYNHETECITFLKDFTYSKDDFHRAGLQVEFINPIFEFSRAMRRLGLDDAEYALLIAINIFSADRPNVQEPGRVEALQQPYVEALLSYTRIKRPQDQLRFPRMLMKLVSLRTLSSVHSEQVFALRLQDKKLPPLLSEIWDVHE
T1 sequence (P19793 1-462 partner): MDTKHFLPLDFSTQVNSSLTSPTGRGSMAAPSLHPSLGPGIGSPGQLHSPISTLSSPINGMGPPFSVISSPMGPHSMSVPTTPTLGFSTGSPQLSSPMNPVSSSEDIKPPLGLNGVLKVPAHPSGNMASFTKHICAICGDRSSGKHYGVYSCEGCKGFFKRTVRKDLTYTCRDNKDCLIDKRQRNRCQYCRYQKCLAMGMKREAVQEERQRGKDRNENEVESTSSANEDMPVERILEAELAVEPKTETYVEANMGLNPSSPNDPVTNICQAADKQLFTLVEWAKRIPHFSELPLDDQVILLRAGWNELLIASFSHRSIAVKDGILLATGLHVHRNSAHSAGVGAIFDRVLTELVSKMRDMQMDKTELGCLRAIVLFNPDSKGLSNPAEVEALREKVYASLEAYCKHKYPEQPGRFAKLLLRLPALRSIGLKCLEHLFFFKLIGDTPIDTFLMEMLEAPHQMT
Test: Co-transfection assay (LXRE luciferase reporter), LXRβ
Type: cell-based
Conditions: for EC50: CV-1 cells transfected with pCMX-hLXRβ and LXREx1-Tk-Luciferase, 20 hours incubation; for Emax: LXRβ co-transfection, relative to high control 1-(2,4-difluorobenzyl)-2-oxo-6-(4-phenoxyphenyl)-4-(trifluoromethyl)-1,2-dihydropyridine-3-carbonitrile, read-out: % Efficacy
Outline: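 Cell-based LXRβ agonism measured as LXRE-luciferase induction in transiently transfected CV-1 cells after 20 h treatment. Potency is the curve-fit EC50; efficacy is expressed as percent of a full-agonist control's maximal response.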

| EC50 [nM] | Emax [%] | SMILES |
| --- | --- | --- |
| 30 | 81 | CCc1nc(-c2cc(-c3cc(F)c(CO)c(S(C)(=O)=O)c3)ccc2-n2cc(C(F)(F)F)nc2C)c(-c2ccc3c(c2)OC(F)(F)O3)o1 [Example 479, (3′-(5-(2,2-difluorobenzo[d][1,3]dioxol-5-yl)-2-ethyloxazol-4-yl)-3-fluoro-4′-(2-methyl-4-(trifluoromethyl)-1H-imidazol-1-yl)-5-(methylsulfonyl)biphenyl-4-yl)methanol] |
| 276 | 91 | Cc1nc(C(F)(F)F)cn1-c1ccc(-c2cccc(S(C)(=O)=O)c2)cc1-n1nncc1-c1ccc(C(F)(F)F)cc1 [Example 62, 1-{3′-(methylsulfonyl)-4-[2-methyl-4-(trifluoromethyl)-1H-imidazol-1-yl]biphenyl-3-yl}-5-[4-(trifluoromethyl)phenyl]-1H-1,2,3-triazole] |
| 52 | 79 | Cc1nc(-c2ccc(Cl)cc2)c(-c2cc(-c3cc(F)c(CO)c(S(C)(=O)=O)c3)ccc2-n2cc(C(F)(F)F)nc2C)o1 [Example 606, (3′-(4-(4-chlorophenyl)-2-methyloxazol-5-yl)-3-fluoro-4′-(2-methyl-4-(trifluoromethyl)-1H-imidazol-1-yl)-5-(methylsulfonyl)-[1,1′-biphenyl]-4-yl)methanol] |
| 1520 | 44 | Cc1nc(C(F)(F)F)cn1-c1ccc(-c2cccc(S(C)(=O)=O)c2)cc1-n1nncc1Cc1ccccc1Cl [Example 219, 5-(2-chlorobenzyl)-1-(4-(2-methyl-4-(trifluoromethyl)-1H-imidazol-1-yl)-3′-(methylsulfonyl)-[1,1′-biphenyl]-3-yl)-1H-1,2,3-triazole] |
| 82 | 89 | Cc1nc(-c2cc(-c3cccc(C(C)(C)C(N)=O)c3)ccc2-n2cc(C(F)(F)F)nc2C)c(-c2ccc(OC(F)F)cc2)o1 [Example 542, 2-(3′-(5-(4-(difluoromethoxy)phenyl)-2-methyloxazol-4-yl)-4′-(2-methyl-4-(trifluoromethyl)-1H-imidazol-1-yl)-[1,1′-biphenyl]-3-yl)-2-methylpropanamide] |
| 430 | 101 | Cc1nc(C(F)(F)F)cn1-c1ccc(-c2cc(Cl)c(CO)c(S(C)(=O)=O)c2)cc1-n1nncc1-c1ccc(OC(F)(F)F)cc1 [Example 212, (3-chloro-4′-(2-methyl-4-(trifluoromethyl)-1H-imidazol-1-yl)-5-(methylsulfonyl)-3′-(5-(4-(trifluoromethoxy)phenyl)-1H-1,2,3-triazol-1-yl)-[1,1′-biphenyl]-4-yl)methanol] |
| 559 | 89 | Cc1nc(C(F)(F)F)cn1-c1ccc(-c2cccc(S(C)(=O)=O)c2)cc1-n1nncc1-c1ccc(CF)cc1 [Example 4, 5-[4-(fluoromethyl)phenyl]-1-{3′-(methylsulfonyl)-4-[2-methyl-4-(trifluoromethyl)-1H-imidazol-1-yl]biphenyl-3-yl}-1H-1,2,3-triazole] |
| 1270 | 95 | Cc1nc(C(F)(F)F)cn1-c1ccc(-c2cccc(S(N)(=O)=O)c2)cc1-n1nncc1-c1ccc(OC(F)(F)F)cc1 [Example 44, 4′-[2-methyl-4-(trifluoromethyl)-1H-imidazol-1-yl]-3′-(5-{4-[(trifluoromethyl)oxy]phenyl}-1H-1,2,3-triazol-1-yl)biphenyl-3-sulfonamide] |
| 183 | 89 | Cc1nc(C(F)(F)F)cn1-c1ccc(-c2cccc(S(C)(=O)=O)c2)cc1-c1ocnc1-c1ccc(OC(F)(F)F)cc1 [Example 361, 5-{3′-(methylsulfonyl)-4-[2-methyl-4-(trifluoromethyl)-1H-imidazol-1-yl]biphenyl-3-yl}-4-{4-[(trifluoromethyl)oxy]phenyl}-1,3-oxazole] |
| 473 | 80 | Cc1nc(C(F)(F)F)cn1-c1ccc(-c2cccc(S(C)(=O)=O)c2)cc1-n1nncc1-c1ccc(C(C)C)cc1 [Example 72, 5-[4-(1-methylethyl)phenyl]-1-{3′-(methylsulfonyl)-4-[2-methyl-4-(trifluoromethyl)-1H-imidazol-1-yl]biphenyl-3-yl}-1H-1,2,3-triazole] |
| 297 | 77 | CCC(F)(F)c1cn(-c2ccc(-c3cccc(S(=O)(=O)NC)c3)cc2-n2nncc2-c2ccc(OC(F)(F)F)cc2)c(C)n1 [Example 185, 4′-[4-(1,1-difluoropropyl)-2-methyl-1H-imidazol-1-yl]-N-methyl-3′-(5-{4-[(trifluoromethyl)oxy]phenyl}-1H-1,2,3-triazol-1-yl)biphenyl-3-sulfonamide] |
| 34 | 71 | Cc1nc(-c2cc(-c3cccc(S(C)(=O)=O)c3)ccc2-n2cc(C(F)(F)F)nc2C)c(-c2ccc(OC(F)F)cc2Cl)o1 [Example 396, 5-(2-chloro-4-(difluoromethoxy)phenyl)-2-methyl-4-(4-(2-methyl-4-(trifluoromethyl)-1H-imidazol-1-yl)-3′-(methylsulfonyl)biphenyl-3-yl)oxazole] |
| 410 | 85 | Cc1nc(C(F)(F)F)cn1-c1ccc(-c2cccc(S(C)(=O)=O)c2)cc1-c1oc(CCO)nc1-c1ccc2c(c1)OC(F)(F)O2 [Example 622, 2-(4-(2,2-difluorobenzo[d][1,3]dioxol-5-yl)-5-(4-(2-methyl-4-(trifluoromethyl)-1H-imidazol-1-yl)-3′-(methylsulfonyl)-[1,1′-biphenyl]-3-yl)oxazol-2-yl)ethanol] |
| 1090 | 63 | Cc1nc(C(F)(F)F)cn1-c1ccc(-c2cccc(S(C)(=O)=O)c2)cc1-n1nncc1C(=O)c1cccc(C(F)(F)F)c1 [Example 137, (1-{3′-(methylsulfonyl)-4-[2-methyl-4-(trifluoromethyl)-1H-imidazol-1-yl]biphenyl-3-yl}-1H-1,2,3-triazol-5-yl)[3-(trifluoromethyl)phenyl]meth-anone] |
| 49 | 91 | Cc1cc(-c2cc(-c3cccc(S(C)(=O)=O)c3)ccc2-n2cc(C(F)(F)F)nc2C)n(-c2ccc(OC(F)F)cc2)n1 [Example 301, 1-(4-(difluoromethoxy)phenyl)-3-methyl-5-(4-(2-methyl-4-(trifluoromethyl)-1H-imidazol-1-yl)-3′-(methylsulfonyl)biphenyl-3-yl)-1H-pyrazole] |
| 579 | 40 | COc1cc(OC(F)(F)F)ccc1-c1nc(C)oc1-c1cc(-c2cccc(S(C)(=O)=O)c2)ccc1-n1cc(C(F)(F)F)nc1C [Example 637, 4-(2-methoxy-4-(trifluoromethoxy)phenyl)-2-methyl-5-(4-(2-methyl-4-(trifluoromethyl)-1H-imidazol-1-yl)-3′-(methylsulfonyl)-[1,1′-biphenyl]-3-yl)oxazole] |
| 507 | 101 | Cc1nc(C(F)(F)F)cn1-c1ccc(-c2cccc(S(C)(=O)=O)c2)cc1-n1nncc1-c1ccc(OC(F)(F)C(F)F)cc1 [Example 23, 1-{3′-(methylsulfonyl)-4-[2-methyl-4-(trifluoromethyl)-1H-imidazol-1-yl]biphenyl-3-yl}-5-{4-[(1,1,2,2-tetrafluoroethyl)oxy]phenyl}-1H-1,2,3-triazole] |
| 2310 | 62 | Cc1nc(C(F)(F)F)cn1-c1ccc(-c2cccc(S(C)(=O)=O)c2)cc1-n1nncc1-c1ccc(F)c(OC(F)(F)F)c1 [Example 46, 5-{4-fluoro-3-[(trifluoromethyl)oxy]phenyl}-1-{3′-(methylsulfonyl)-4-[2-methyl-4-(trifluoromethyl)-1H-imidazol-1-yl]biphenyl-3-yl}-1H-1,2,3-triazole] |
| 350 | 49 | Cc1nc(C(F)(F)F)cn1-c1ccc(-c2cc(F)c(CO)c(S(C)(=O)=O)c2)cc1-c1nc(C2CC2)cn1-c1ccc(Cl)cc1 [Example 647, (3′-(1-(4-chlorophenyl)-4-cyclopropyl-1H-imidazol-2-yl)-3-fluoro-4′-(2-methyl-4-(trifluoromethyl)-1H-imidazol-1-yl)-5-(methylsulfonyl)-[1,1′-biphenyl]-4-yl)methanol] |
| 384 | 66 | Cc1nc(C(F)(F)F)cn1-c1c(F)cc(-c2cccc(S(=O)(=O)N3CCCC3)c2)cc1-n1nncc1-c1ccc(OC(F)(F)F)cc1 [Example 199, 1-{5-fluoro-4-[2-methyl-4-(trifluoromethyl)-1H-imidazol-1-yl]-3′-(pyrrolidin-1-ylsulfonyl)biphenyl-3-yl}-5-{4-[(trifluoromethyl)oxy]phenyl}-1H-1,2,3-triazole] |
